Experiment [1] deals with spontaneous hypertension rats (SHR). The experiment in a line: Hemodynamics effect of inhaled H2 in spontaneous hypertension rats (telemetry). It is filed as in vivo, rat (SHR/Izumo). As to the method: Male Lewis rats (8 weeks-old, body weight 250-300 g), and 10 weeks-old male spontaneous hypertension rats (SHR/Izumo rats; hereinafter simply referred to as SHR) were used (CLEA Japan). Rats were given water and standard food ad libitum, and were not fasted before experiment. Rats were kept under a condition of standardized temperature (22±1° C.) and humidity (55±5) in a 12 hours:12 hours of light-dark cycle. Rats were acclimated to the experimental condition from at least one week before the experiment. This research was approved by institutional animal control committees (Keio University [Tokyo], No. 13002-4; and Nippon Veterinary and Life Science University [Tokyo], No. 30K-61). Rats were randomly assigned to the H2 group or the control group.
In order to monitor continuous blood pressure fluctuation, telemetry transmitters were implanted into rats. Specifically, rats were anesthetized with isoflurane, and the left groin was disinfected with 1% chlorhexidine. An incision of about 1.5 cm was made in the left groin, the left femoral artery was exposed, and a telemetry transmitter (HD-S10, Physiotel HD Telemetry, Data Science International) catheter was inserted into the left femoral artery. The tip of the transmitter catheter was placed in the abdominal aorta caudally from the branch of the renal artery. The transmitter body was inserted into a subcutaneous pocket made in the left lower back, and the skin was sutured. All surgical intervention was performed under sterile conditions.
H2 gas (1.3% H2+21% O2+77.7 N2) and control gas (21% O2+79% N2) were filled into gas cylinders in advance at a factory. The H2 group and the control group were allowed to inhale the H2 gas and the control gas that were mixed in advance. All animals were allowed to inhale the assigned gas at 10 L/minute for 1 hour in an established anesthesia box, and inhaled for an additional three minutes to purge the box (i.e. a total of 63 minutes). In the nephrectomy model and SHR, gas inhalation was repeated every day for 4 weeks and 2 weeks, respectively.
Spontaneous hypertension rats (SHR) are a well-established hereditary hypertensive model that is broadly used in hypertensive research (Okamoto, K. & Aoki, K. Development of a strain of spontaneously hypertensive rats. Jpn. Circ. J. 27, 282-293 (1963); and Rubattu, S., Struk, B., Kreutz, R., Volpe, M. & Lindpaintner, K. Animal models of genetic hypertension: what can we learn for human hypertension? Clin. Exp. Pharmacol. Physiol. 22, S386-393 (1995)). In order to investigate the consistency of the hypotensive effect of H2 in other hypertensive models, the therapeutic effect of H2 gas against hypertension of SHR was investigated (FIG. 1d). […]

The test system of experiment [2] is hypertension established after 5/6 nephrectomy. The experiment in a line: Therapeutic effect of delayed H2 inhalation on hypertension established after 5/6 nephrectomy (tail-cuff). The experiment is classed as in vivo, Lewis rat. Particulars: N=17. The method, then:
At about 24 hours after the final gas inhalation of 5/6 nephrectomized rats, blood pressure and heart rate were non-invasively measured using the tail-cuff pressure measurement method (BP-98A, Softron). The hemodynamics parameter was measured three times, and the median was adopted as the representative value. In order to elicit renal hypertension, 5/6 nephrectomy was carried out with slight modification to previously described methods (Nephrology (Carlton) 19, 552-561; 10.1111/nep.12279 (2014); J. Am. Soc. Nephrol. 4, 2023-2031 (1994); and Kidney Int. 40, 29-34; 10.1038/ki.1991.175 (1991).). Briefly, rats were anesthetized by isoflurane inhalation (induction at 4% and maintenance at 1.5%), and upper midline laparotomy of about 4 cm was carried out. Surgical operation was performed under a microscope, the left renal artery branch was identified, and selectively ligated with 7-0 silk at a position as close as possible to the left kidney so that macroscopic infarction is caused in about ⅔ of the left renal cortex. In the first pilot research (FIGS. 1a and 2), a high-temperature cautery pen (AA11, Bovie, Tenn., U.S.A.) was used to add the resection of the infarcted portion of the kidney. Subsequently, the right renal artery, the renal vein, and the urinary duct was ligated with 4-0 silk, and the right kidney were resected. […]

The mark [3] stands for this setting: Week 2 compared to Week 1 of daily inhalation, N=3.
Where [4] appears, read: Week 3 (week after 2 weeks of inhalation).

Each structure is given as a SMILES string.

As to `[2H][2H]` [H2 gas, Molecular hydrogen (H2)], in experiment [1] (setting [3]), the “increase in blood pressure” value is listed as “suppressed” and the “increase in heart rate” value was “suppressed”. Also, in experiment [1] (setting [4]), the “blood pressure after inhalation was stopped” value was “stayed low” and the “heart rate after inhalation was stopped” value was “stayed low”. The “duration of hypotensive effect” value in experiment [2] (delayed inhalation, one hour daily for 4 weeks) is “continued through the inhalation duration”. Further, the “blood pressure (established hypertension)” value in experiment [2] (inhalation started 3 weeks after 5/6 nephrectomy, one week after starting H2 inhalation, no statistically significant difference) was “began to decrease”.

The values are drawn from US20210177889A1, “GASEOUS PHARMACEUTICAL COMPOSITION FOR HYPERTENSION THERAPY” (KEIO UNIVERSITY, priority 2019, published 2021).
